From patent publication US5990096A (priority 1992, dated 1999)

Tests used:
[1] = Intratumour injection study: radioactivity remaining in normal skin; assay type: in vivo, Fisher 344 rat; details: injection into normal skin
Description: (§1) 1. These drugs were administrated by intratumor injection. (right frank)
At the same time, injection into normal skin (left frank) was carried out similarly.
(§2) Group A:H-5-FU 5 mg/kg+saline/0.3 ml (i.t.)
(§3) B:H-5-FU 5 mg/kg+HA 15 mg/kg/0.3 ml (s.c.)
(§4) 3H-FU without or with HA was injected as a single dose (0.3 ml) into the center of the tumor (on the right frank) with a 30 gause needle. At the same time, injection into normal skin (on the left frank) was carried out similarly.
(§5) The tumor and skin was then removed at different times (1 h,6 hr) for counting radioactivity of the remaining content in the tissue.

[2] = tested on: Fisher Bladder Carcinoma; assay: Intratumour injection study: radioactivity remaining in tumor tissue; assay type: in vivo, Fisher 344 rat; details: intratumor injection
Description: as §1, §2, §3, §4, §5

[3] = in vivo

With `O=c1[nH]cc(F)c(=O)[nH]1` [Formulation 3H-5FU, 5-Fluoracil] the “Radioactivity clearance from normal tissue (skin)” value [1] was “immediately disappeared” and the “Radioactivity retention in tumor tissue” value [2] was “immediately disappeared”.
With `O=C(O)Cc1ccccc1Nc1c(Cl)cccc1Cl` [Oral diclofenac acid] the Side effects [3] was “gastritis”.
